From paper PMC9834240, “Senescent cells perturb intestinal stem cell differentiation through Ptk7 induced noncanonical Wnt and YAP signaling” (Nature Communications, 2023)
“And” between values parts separate entries of the source, which are not always exact repeats. Identical values can stand only once.

Tests used:
[1] = test system: soluble Ptk7 (sPtk7) shed by MEFs; test: Western blot for sPtk7 in conditioned media; assay type: cell-based, mouse
Description: Twenty-four hours before collecting conditioned media (CM), MEFs were washed with serum-free DMEM twice, and serum-free DMEM was added. After 24 h in serum-free DMEM, this CM was collected, filtered using Steriflip filters (Millipore, #SE1M179M6) to remove cell debris, and concentrated using centrifugal filter units (Amicon ultra-15 centricon; Millipore, # UFC900324). To collect CM without sPtk7, TAPI-1 (Millipore, #59053) or GM6001 (Sigma-Aldrich, #364206) containing serum-free DMEM instead of serum-free DMEM was added to the cells. To inhibit Wnt secretion, IWP-L6 (Sigma-Aldrich, #504819) containing serum-free DMEM instead of serum-free DMEM was added to the cells. CM was filtered and dialyzed for 24–48 h to remove the inhibitors before concentration. Concentrated CM from equal numbers of MEFs was mixed with IntestiCult Organoid Growth Medium (Stem Cell Technologies, #06005) and added to the organoid cultures.
Conditioned media corresponding to the same number of cells were loaded for SDS–PAGE. Total cell and tissue lysates of mouse fibroblasts and intestine were prepared using RIPA lysis buffer (Thermo Fisher Scientific, #89900) with protease/phosphatase inhibitor (Thermo Fisher Scientific, #1861281). Protein concentration was measured with BCA protein assay kit (Thermo Fisher Scientific, #23227), and equal amount of proteins were loaded for SDS–PAGE. […]

[2] = test system: MEFs; test: SA-β-Gal staining; assay type: cell-based, mouse; settings: X-ray irradiation or doxorubicin (250 nM, 3 days)
Description: Staining was performed with the Senescence Detection Kit (Abcam, #ab65351) following the manufacturer’s protocol. Briefly, MEFs were fixed for 15 min with 1× fixation solution, washed with PBS, then stained overnight at 37 °C in 1× staining solution. Brightfield images were captured on the Zeiss Axio Imager M2 microscope.

[3] = test system: mouse intestinal organoids; test: cystic organoid percentage, organoids treated with recombinant Wnt ligands (Wnt3a, Wnt5a, Wnt11); assay type: cell-based; settings: for percentage of cystic organoids: Fig. 4e, individual mice, n = 3
Description: The jejunum part of the small intestine was removed, flushed with PBS, opened longitudinally, then cut into 0.5 cm pieces. The collected tissues were washed with ice cold PBS multiple times by vortexing and incubated in PBS containing 2.5 mM EDTA for 5 min at 37 °C. After gentle shaking and aspiration, tissues were incubated in PBS containing 5 mM EDTA for 7 min at 37 °C. Tissues were then washed with PBS to remove EDTA and vigorously shaken to release crypts. The released crypts were passed through 70 μm strainers, washed with PBS, and pelleted by centrifugation at 200 × g. Resuspended crypts were mixed with Matrigel (Corning, #356231; Lot#8218007) and pipetted into culture plates. After mixture of crypts and Matrigel solidified, IntestiCult Organoid Growth Medium (Stem Cell Technologies, #06005; Lots #1000021927, #1000034230, #1000037372) was added. Seven days after seeding, organoids were resuspended in dissociation buffer (Gentle Cell Dissociation Reagent; Stem Cell Technologies, #07174), dissociated by pipetting, and seeded for experiments.
3-4 biological replicates of organoids from different mice were used per condition. Organoids were cultured in the indicated media, inhibitors, antibodies and/or recombinant proteins for 5 d and fixed in 4% formaldehyde in PBS. Organoids were imaged with a 4× Plan Fluor objective (NA: 0.13, Nikon) on a Nikon Ti-E inverted microscope equipped with a Neo scMOS camera (Andor, Oxford Instruments), a linear encoded automated stage (Applied Scientific Instrumentation), all run by NIS Elements software (Nikon). Organoids were imaged in brightfield and images covering the whole well were stitched and focused into one image projection with an extended depth of focus module (EDF; Nikon). One hundred to 200 organoids per replicate per condition were counted and used for quantification. The number of budding organoids in each condition was normalized by the number of budding organoids in untreated or DMSO treated controls to calculate cystic organoid percentage:1 Cysticorganoidpercentage=100×1−Numberofbuddingorganoidsfromexperiment/Numberofbuddingorganoidsfromcontrol

[4] = test system: cytosolic Ca2+ in mouse intestinal organoids; test: live Ca2+ imaging of mouse intestinal organoids (GCaMP6f/tdTomato: baselined area under curve, peak number, height, width); assay type: cell-based; settings: live organoids expressing GCaMP6f
Description: Z stacks were acquired every 10 s.
Z-stack images were converted to mean intensity projections and, where required; background was subtracted using a rolling ball algorithm. Segmentation was conducted on a max-projection over-time of the GCaMP6f channel using Cellpose’s pre-trained “Cytoplasm” classifier. Mean intensity traces were measured in each ROI over the time course in both the GCaMP6f and TdTomato channels using scikit-image[138]. Ca^2+ oscillation patterns were calculated in an unsupervised, automated manner using MATLAB. Mean intensity traces were smoothed using a Savitzky-Golay filter and peaks were identified using the “findpeaks” algorithm from the MATLAB Signal Processing Toolbox. Graphs for GCaMP6f/tdTomato fluorescence ratio, peak numbers, peak height, peak width and baselined area under the curve were generated using Python matplotlib and seaborn packages. Statistical analysis was performed using Python SciPy and scikit-post-hoc packages.

[5] = test system: β-Catenin-dependent Wnt signaling (HEK293-TB cells); test: TOPbrite dual-luciferase Wnt reporter assay; assay type: cell-based; settings: SF.3e
Description: Generation of HEK293 cells stably expressing a TOPbrite firefly luciferase Wnt reporter and pRL-SV40 Renilla luciferase (HEK293-TB) was previously described. HEK293-TB cells were maintained in DMEM/F12 (50:50), supplemented with 10% FBS, 2 mM Glutamax (Gibco, #35050-061) and 40 μg/ml hygromycin (Cellgro, #30-240-CR). For the luciferase reporter assay, HEK293-TB cells were seeded in 96-well plates (Falcon, #353377). The next day, cells were treated with indicated Wnt ligands (50 ng/ml) or CM diluted in culture media. After 24 h, the firefly and Renilla luciferase activity was measured using Dual-Glo Luciferase Assay system (Promega, #E2940) on a Perkin Elmer EnVision multilabel reader. The ratios of firefly luminescence to Renilla luminescence were calculated and normalized to control samples that were not treated.

[6] = test system: biotinylated Wnt3a; test: ELISA binding to Wnt3a; parameters: species or system mouse; settings: PTK7 with FZD7 CRD
Description: (§1) Proteins used in ELISAs were obtained from R&D Systems: PTK7-Fc (R&D Systems, #9799-TK), biotinylated Wnt3a (R&D Systems, #BT1324), biotinylated Wnt5a (R&D Systems, #BT645). […] Assay plates (384 Maxisorp plates, Nunc, # 464718) were prepared by incubation overnight with 30 µl/well Neutravidin (2 µg/ml, Thermo Fisher Scientific, #31055) in PBS at 4 °C. Plates were emptied and incubated with 100 µl/well of blocking buffer (PBS, 2% bovine serum albumin, 0.01% NaN3) for 1 h at room temperature with shaking. Blocking buffer was aspirated and plates were washed 8x with 70 µl/well of PBS-T. In parallel, bio-Wnt3a or bio-Wnt5a were incubated in helper plates (384 well plates, Nunc; #264574) with a dilution series of PTK7-Fc or FZD7-His in the presence or absence of FZD7-His as a competitor in assay diluent (PBS + 0.5 % BSA + 15 ppm ProClin 300 (Sigma-Aldrich, #48914-U) for 1 h at 4 °C. Protein mixtures (25 µl/well) were transferred from helper plates to 3 wells of assay plates (technical triplicates), and incubated for 1 h at 4 °C. Assay plates were aspirated and washed 8× with 70 µl/well of PBS-T. Binding was detected by 25 µl/well of anti-hIgG1-Fc-HRP (0.2 µg/ml, Thermo Fisher Scientific, #A-10648) or anti-His-tag-HRP (0.2 µg/ml, Abcam, #ab1187) in assay diluent, incubated for 1 h at 4 °C. […] Absorbance at 450 nm was recorded with a plate reader. […]

[7] = test system: biotinylated Wnt5a; test: ELISA binding to Wnt5a; parameters: species or system human/mouse (hmWnt5a); settings: Wnt5a versus Wnt3a
Description: as §1

COc1cccc2c1C(=O)c1c(O)c3c(c(O)c1C2=O)C[C@@](O)(C(=O)CO)C[C@@H]3O[C@H]1C[C@H](N)[C@H](O)[C@H](C)O1 [doxorubicin]
levels of sPtk7 in conditioned media [1]: contained higher levels of sPtk7
senescence (SA-β-gal) [2]: confirmed senescence

Wnt3a [reference compound]
percentage of cystic organoids ([3]; Wnt3a 25 ng/ml): 7.495% and 3.142% and 6.766%
percentage of cystic organoids ([3]; Wnt3a 50 ng/ml): 18.7879% and 6.422% and 6.8556%
percentage of cystic organoids ([3]; Wnt3a 100 ng/ml): 13.092% and 2.902% and 16.5461%
percentage of cystic organoids ([3]; Wnt3a 250 ng/ml): 21.7379% and 11.3578% and 13.1232%
percentage of cystic organoids ([3]; Wnt3a 500 ng/ml): 37.371% and 19.4444% and 31.0445%
induction of cystic organoids ([3]; recombinant Wnt ligand added to crypt cultures): dose-dependently increased organoids with cystic morphology
effect on cytosolic Ca2+ levels and oscillations [4]: decreased cytosolic Ca^2+ levels
TOPbrite dual-luciferase Wnt reporter activity ([5]; replicate 1): 83.0786
TOPbrite dual-luciferase Wnt reporter activity ([5]; replicate 2): 67.4901
TOPbrite dual-luciferase Wnt reporter activity ([5]; replicate 3): 77.6835
TOPbrite dual-luciferase Wnt reporter activity ([5]; replicate 4): 73.6039

B1: sPtk7: soluble/shed N-terminal extracellular domain of Ptk7 (protein)
chain: AIVFIKQPSSQDALQGRRALLRCEVEAPGPVHVYWLLDGAPVQDTERRFAQGSSLSFAAVDRLQDSGTFQCVARDDVTGEEARSANASFNIKWIEAGPVVLKHPASEAEIQPQTQVTLRCHIDGHPRPTYQWFRDGTPLSDGQSNHTVSSKERNLTLRPAGPEHSGLYSCCAHSAFGQACSSQNFTLSIADESFARVVLAPQDVVVARYEEAMFHCQFSAQPPPSLQWLFEDETPITNRSRPPHLRRATVFANGSLLLTQVRPRNAGIYRCIGQGQRGPPIILEATLHLAEIEDMPLFEPRVFTAGSEERVTCLPPKGLPEPSVWWEHAGVRLPTHGRVYQKGHELVLANIAESDAGVYTCHAANLAGQRRQDVNITVATVPSWLKKPQDSQLEEGKPGYLDCLTQATPKPTVVWYRNQMLISEDSRFEVFKNGTLRINSVEVYDGTWYRCMSSTPAGSIEAQARVQVLEKLKFTPPPQPQQCMEFDKEATVPCSATGREKPTIKWERADGSSLPEWVTDNAGTLHFARVTRDDAGNYTCIASNGPQGQIRAHVQLTVAVFITFKVEPERTTVYQGHTALLQCEAQGDPKPLIQWKGKDRILDPTKLGPRMHIFQNGSLVIHDVAPEDSGRYTCIAGNSCNIKHTEAPLYVVDKPVPEESEGPGSPPPYKMIQT
modifications: left off: Fc (human IgG1, from the anti-hIgG1-Fc detection antibody), end not stated, kept
notes: soluble/shed N-terminal extracellular domain of Ptk7
effect on cytosolic Ca2+ levels and oscillations [4]: modulate cytosolic Ca^2+ oscillations
competition for binding to Wnt3a or Wnt5a [6]: unaffected by a saturating amount of FZD7 CRD
binding to Wnt3a and Wnt5a, relative affinity [7]: bound Wnt5a with higher affinity
